# Reference: US20090170938A1 (priority 2005, published 2009)
# Tested on: Phytophthora infestans
# Type: in vivo, Phytophthora infestans on tomato
# Settings: active compound application rate 5 ppm; protective spray, tomato; evaluation 3 days after inoculation
structure (smiles),measurement,value
"CON=C(C(=O)OC)c1ccccc1CO/N=C(\C)c1cccc(C(F)(F)F)c1 [Trifloxystrobin, 2-[α-{[(α-methyl-3-trifluoromethyl-benzyl)imino]-oxy}-o-tolyl]-glyoxylic acid methyl ester O-methyloxime]",% efficacy,23%
